This is an account of results in ChEMBL document CHEMBL5050843, “Amide substituted thiazoles as protein secretion inhibitors” (2019).

pIC50: −log10 of the molar value.

A short description of experiment [1]: Inhibition of constitutively active VCAMss-Gluc secretion in human Flp-In-T-REx-293 cells at 2.5 uM measured by Gaussia luciferase reporter gene method relative to control. It is filed as functional. (In general: A reporter such as luciferase makes a cellular process visible.)
Experiment [2] can be described thus: Inhibition of TNF-alpha-FL-Gluc secretion in doxycyclin-induced human Flp-In-T-REx-293 cells at 2.5 uM measured by Gaussia luciferase reporter gene method relative to control. It is filed as functional.
A short description of experiment [3]: Inhibition of constitutively active VCAMss-Gluc secretion in human Flp-In-T-REx-293 cells measured by Gaussia luciferase reporter gene method. It is filed as functional, cell-based.
The nature of experiment [4]: Inhibition of VCAMss-Gluc secretion in doxycyclin-induced human Flp-In-T-REx-293 cells measured by Gaussia luciferase reporter gene method. It is filed as functional, cell-based.
The nature of experiment [5]: Inhibition of PD1ss-Gluc secretion in doxycyclin-induced human Flp-In-T-REx-293 cells measured by Gaussia luciferase reporter gene method. It is filed as functional, cell-based.
A short description of experiment [6]: Inhibition of constitutively active PR1ss-Gluc secretion in human Flp-In-T-REx-293 cells measured by Gaussia luciferase reporter gene method. It is filed as functional, cell-based.
Experiment [7] is described as follows: Inhibition of PR1ss-Gluc secretion in doxycyclin-induced human Flp-In-T-REx-293 cells measured by Gaussia luciferase reporter gene method. It is filed as functional, cell-based.
Experiment [8] is described as follows: Inhibition of TNF-alpha-FL-Gluc secretion in doxycyclin-induced human Flp-In-T-REx-293 cells measured by Gaussia luciferase reporter gene method. Type of experiment: functional, cell-based.
Experiment [9] in a line: Inhibition of VCAMss-Gluc secretion in doxycyclin-induced human HEK293 cells measured by Gaussia luciferase reporter gene method. Type of experiment: functional, cell-based.
The nature of experiment [10]: Inhibition of VCAM expression in human Flp-In-T-REx-293 cells measured by cellular VCAMss-Gluc assay. It is filed as functional, cell-based.
Experiment [11] is described as follows: Inhibition of VCAM expression in doxycyclin-induced human HEK293-T-REx cells measured by Gaussia luciferase reporter gene method. It is filed as functional, cell-based.
Experiment [12] can be described thus: Inhibition of HER3 expression in doxycyclin-induced human HEK293-T-REx cells measured by Gaussia luciferase reporter gene method. It is filed as functional, cell-based.
A short description of experiment [13]: Inhibition of TLR9 expression in doxycyclin-induced human HEK293-T-REx cells measured by Gaussia luciferase reporter gene method. Type of experiment: functional, cell-based.
A short description of experiment [14]: Inhibition of ROS1 expression in doxycyclin-induced human HEK293-T-REx cells measured by Gaussia luciferase reporter gene method. Type of experiment: functional, cell-based.
Experiment [15] can be described thus: Inhibition of PD1 expression in doxycyclin-induced human HEK293-T-REx cells measured by Gaussia luciferase reporter gene method. Type of experiment: functional, cell-based.

With `CC(C)(C)c1csc(NC(=O)c2cccs2)n1`, the figures for the inhibition at 2.5 µM in [1] and in experiment [2] were 23% and 24%, respectively.

Regarding `CC(C)(C)c1csc(NC(=O)c2cc3cc(-c4ccccc4Cl)ccc3s2)n1`, the negative-log IC50 (pIC50) in experiment [3] is 5.39; in experiment [4] it was 5.02; in experiment [5], 5.41; in experiment [6], less than 4.60; in experiment [7], less than 4.60.

For the compound `CCCC(C)(C)c1csc(NC(=O)Cc2csc3ccc(Cl)cc23)n1`, the pIC50 was 6.00 in experiment [3]; 6.13 in experiment [4]; 5.76 in [5]; less than 4.60 in experiment [6]; less than 4.60 in [7].

As to `CC(C)(C)c1csc(NC(=O)Cc2cn(Cc3ccc(F)cc3)c3ccccc23)n1`, the negative-log IC50 (pIC50) was 5.68 in experiment [3]; 5.94 in [4]; 4.89 in experiment [5]; less than 4.60 in [6]; less than 4.60 in experiment [7].

Turning to `Cc1ccc2c(CC(=O)Nc3nc(C(C)(C)C)cs3)csc2c1`, the pIC50 in experiment [3] is 5.17; in experiment [4] it was 5.23; in experiment [5] it was 4.65; in experiment [6] it was less than 4.60; in experiment [7], less than 4.60.

For the compound `CCC(C)(C)c1csc(NC(=O)Cc2csc3ccc(Cl)cc23)n1`, the pIC50 is 5.91 in experiment [3]; 6.08 in experiment [4]; 5.56 in [5]; less than 4.60 in [6]; less than 4.60 in experiment [7].

In the case of `CC(C)(C)c1csc(NC(=O)Cc2cn(Cc3ccccc3)c3ccc(Cl)cc23)n1`, the pIC50 in [3] is 6.30; in experiment [4] it was 6.23; in experiment [8] it was 4.88; in [5], 5.37; in experiment [6] it was less than 4.60; in [7], less than 4.60.

Consider `CC(C)(C)c1csc(NC(=O)Cc2csc3ccc(Cl)cc23)n1`, for which the negative-log IC50 (pIC50) is 6.04 in experiment [3]; 5.95 in experiment [4]; less than 4.60 in experiment [8]; 5.27 in experiment [5]; less than 4.60 in experiment [6]; less than 4.60 in [7].

With `O=C(NC1NC(c2ccccc2)=NS1)N1CCOc2ccc(Cl)cc2C1` (stereo unspecified), the pIC50 in experiment [9] is 4.66.

Consider `Cc1cc(C(=O)Nc2nc(C(C)(C)C)cs2)cs1`, for which the pIC50 in experiment [3] was 4.90; in experiment [4], 4.72; in experiment [8], less than 4.60; in experiment [5], 5.01; in experiment [6] it was less than 4.60; in experiment [7], less than 4.60. Also, the pIC50 in experiment [9] is 5.48.

With `CC(C)(C)c1csc(NC(=O)Cc2csc3ccc(C#N)cc23)n1`, the pIC50 in experiment [3] was 5.90; in experiment [4], 5.81; in [5] it was 5.11; in experiment [6] it was less than 4.60; in experiment [7] it was less than 4.60.

Consider `CC(C)(C)c1csc(NC(=O)c2cc3c(s2)CCNC3)n1`, for which the inhibition at 2.5 µM in experiment [1] and in experiment [2] was 0% each time.

As for `CC(C)(C)c1csc(NC(=O)C(Cc2ccccc2)c2cn(Cc3ccccc3)c3ccc(Cl)cc23)n1` (stereo unspecified), the pIC50 in [8], in [5], in experiment [7] and in experiment [10] was less than 4.60 in each case.

Regarding `CC(C)(C)c1csc(NC(=O)c2ccc(Cl)cc2)n1`, in [6], the negative logarithm of the IC50 (pIC50) was less than 4.60. In addition, the inhibition at 2.5 µM was 66% in experiment [1] and 0% in experiment [2].

`CCOC(C)(C)c1csc(NC(=O)Cc2cn(Cc3ccccc3Cl)c3ccc(Cl)cc23)n1`: the pIC50 in [8] is 4.61; in experiment [5] it was 6.01; in experiment [7], less than 4.60; in experiment [10], 6.00; in experiment [11], greater than 5.30; in [12], greater than 5.30. Also, the pIC50 in [13], in [14] and in [15] was greater than 5.30 each time.

Consider `Cc1ccc2scc(CC(=O)Nc3nc(C(C)(C)C)cs3)c2c1`, for which the pIC50 in [3] was 5.79; in experiment [4], 5.65; in experiment [5] it was 5.08; in experiment [6], less than 4.60; in experiment [7] it was less than 4.60.

Turning to `CC(C)(C)c1csc(NC(=O)c2cc3c(s2)CCN(Cc2ccccc2)C3)n1`, the values for the inhibition at 2.5 µM in experiment [1] and in experiment [2] were 33% and 22%, respectively.

In the case of `Cc1cccc2c(CC(=O)Nc3nc(C(C)(C)C)cs3)csc12`, the pIC50 is 5.62 in experiment [3]; 5.45 in experiment [4]; 4.69 in experiment [5]; less than 4.60 in [6]; less than 4.60 in experiment [7].

In the case of `COc1ccc2[nH]c(-c3ccc(C(=O)Nc4nc(C(C)(C)C)cs4)s3)cc2c1`, the inhibition at 2.5 µM was found to be 42% in [1] and 27% in experiment [2].

Turning to `COc1ccc2c(c1)cc(-c1ccc(C(=O)Nc3nc(C(C)(C)C)cs3)s1)n2C(=O)OC(C)(C)C`, the results for the inhibition at 2.5 µM in experiment [1] and in experiment [2] were 56% and 0%, respectively.

As for `CC(C)(C)c1csc(NC(=O)c2cc3cc(C#N)ccc3s2)n1`, the negative logarithm of the IC50 (pIC50) in experiment [3], in [4], in [5], in [6] and in [7] was less than 4.60 throughout.

The inhibition is the change of the read-out against control, counted positive when it falls. The low end stands for a response near the control, the high end for a response far below the control. For orientation: pIC50 means −log10 of the IC50, conventionally taken in molar units. Lower therefore signals a high IC50.
